The source of these data is patent publication US6737407B1, “Treatment of obesity” (Metabolic Pharmaceuticals, Ltd., priority 1997, dated 2004).

In test [1] the test system is Human Abdominal adipose Tissue. In words: Antilipogenic activity in human abdominal adipose tissue. Format: cell-based. The note with it: 0.1 μM peptide; BSA + insulin. As for the experimental part: (§1) The rate of the incorporation of exogenous [C^14]-glucose into total lipid in adipose tissue was measured as the index of anti-lipogenic activity of hGH 177-191.
Adipose tissues were sliced into segments of approximately 200 mg each and then placed in Krebs-Ringer bicarbonate (KRB) buffer (pH 7.4) containing 2% defatted BSA, and glucose (0.1 mg/ml) and gassed with 95% O2-5% CO2 at 37° C. After 1 hr preincubation, the tissues were transferred to another 2 ml of fresh media containing [C^14]-glucose (final specific activity 0.05 μCi/μmol), […] of insulin (0.1 mU/ml) for a further 90 min incubation (conditions as above). Then the tissues were removed, washed thoroughly with KRB buffer and lipid was extracted with 5 ml of chlorofom/methanol (2:1, v/v) The extraction solution was washed with 2 ml of MeOH-H2O solution containing 0.1% MgCl2. A 2.5 ml aliquot of the washed extraction solution was taken and transferred to scintillation vials. The [C^14] radioactivity was measured with a liquid scintillation counter. The rates of total lipid synthesis were expressed as μmol [C^14]-glucose incorporated into lipid/g tissue/hr.
(§2) Tables 6 and 7 show the in vitro antilipogenic and lipolytic activity of hGH 177-191 and two representative analogues (Ref Nos. 9604 and 9605) on human adipose tissue.

Test [2] concerns Porcine adipose Tissue. In words: Lipolytic activity in porcine adipose tissue. Type of test: cell-based, pig. The note with it: 0.5 μM peptide. As for the experimental part:
(§3) Adipose tissues were removed from animals and sliced into segments of approximately 200 mg each. Then the tissues were pre-incubated in 25 ml vials containing 2 ml of Krebs-Ringerbicarbonate (KRB) buffer, 4% defatted BSA and 5.5 mM glucose under an atmosphere of carbogen (95%O2/ 5%CO2) at 37° C. for 1 hour. Tissues were then transferred to another vials with fresh medium and the incubation was initiated by adding hGH 177-191 peptide or analogues into the vials. The mixtures were then incubated at 37° C. for 90 minutes. After incubation, the tissues wee removed and aliquots (200 μl) of samples withdrawn from the medium were assayed for the contents of glycerol or free fatty acid (FFA) either by the enzyme assay (glycerol kinase) or calorimetric (copper-dye) spectrometry. The NADH or color produced was then monitored by the absorption at 340 nm and 610 nm, respectively.
Since corresponding sequences of non-human mammals are effectively peptide variants of the human sequence, it is also therefore expected that those corresponding sequences will be effective in other mammals including humans.

The test system of test [3] is C57BL/6J (ob/ob) mice. The experiment in a line: Chronic treatment of C57BL/6J (ob/ob) mice with peptide analogues. Type of test: in vivo, mouse. As for the experimental part: Animals were given a daily intraperitoneal injection of either saline (as control) or peptide analogue (500 μg/kg body weight). Each point represents the mean±SEM of 6 animals.
The treatment for the two groups of animals was as described in FIG. 11A. Each point represents the mean±SEM of 6 animals.
The animals of the same age and same sex were randomly divided into two groups, housed 6 per cage and maintained on a normal 12-hr light/dark cycle at a constant room temperature of 25° C. in the animal house of the Department of Biochemistry and—Molecular Biology, Monash University, Clayton, Australia. Animals were fed ad libitum on pre-determined quantity of animal pellets (Clark King, Melboume, Australia) and allowed free access to water at all times. The animals were given a daily intraperitoneal (i.p) injection of 0.1 ml of either the synthetic peptide (200-500 μg/kg body weight) or equivalent volume of physiological saline (0.9% sodium chloride) for appropriate number of days. The i.p. injection was administered with a 30G×½″ (0.31×13 mm) needle on a 1-ml disposable tuberculin syringes, and the site of injection was the lower left quadrant of the abdomen of the animals. To study the effects of controlled-delivery of hGH 177-191 and analogues, slow-release peptide-pellets in a diameter of 3 mm were implanted intradermally in the abdominal region of Zucker rats under anaesthesia. The body weight and food intake were monitored for the periods of time as indicated.
Cumulative weight gain and food consumption were determined at 3-day intervals by the measurements of body weight and uneaten food remaining in the cages. The animals were placed in a covered chamber to minimise movement during the weighing procedure. The food consumption data were obtained by subtracting the amount of uneaten food remaining in the cages from the original provision.
The animals were anaesthetised with sodium pentobarbitone (80 mg/kg body weight) 12 hr after the last dose of hGH 177-191. Blood samples were collected from the tail vein of anaesthetised animals 45 mins after the administration of anaesthetic. After being centrifuged at 2000×g for 5 minutes, plasma was removed from the samples and used for metabolite assays. Triglyceride and total cholesterol in plasma were measured by enzyme-spectrophotometric methods. The reagents are based on either a modified glycerol phosphate oxidase (GPO)-Trinder's type colour reaction^24 or a cholesterol oxidase-4-aminoantipyrine method^25. All assays were performed with the CentrifiChem System 400 (Union Carbide) containing an automated pipetter, a centrifugal analyser and a recording spectrophotometer. Seronorm Lipid (Nycomed Pharma Co., Oslo, Norway) was used as the calibrator.

For test [4], the system named is adipose tissues from male Zucker fatty (fa/fa) rats. In words: In vitro glycerol release during lipolysis in isolated adipose tissue. Type of test: cell-based, rat. As for the experimental part:
as §3

Test [5] shares this test system. The experiment in a line: In vitro inhibition of lipogenesis in isolated adipose tissue. Format: cell-based, rat. The note with it: for activity according to the in vivo and in vitro assay results (in words): structure-activity summary; for In vitro lipogenesis % of control / In vitro lipogenesis Activity / In vitro lipogenesis, rate of [C14]-glucose incorporation into [C14]-lipid: peptide 0.3 μM, insulin 0.1 mU/ml; for In vitro lipogenesis, rate of [C14]-glucose incorporation into [C14]-lipid: KRB buffer. As for the experimental part: as §1
Adipose tissues were sliced into segments of approximately 200 mg each and then placed in Krebs-Ringer bicarbonate (KRB) buffer (pH 7.4) containing 2% defatted BSA, and glucose (0.1 mg/ml) and gassed with 95% O2-5% CO2 at 37° C. After 1 hr preincubation, the tissues were transferred to another 2 ml of fresh media containing [C^14]-glucose (final specific activity 0.05 μCi/μmol), and 0.3 μM of hGH 177-191 in the presence or absence of insulin (0.1 mU/ml) for a further 90 min incubation (conditions as above). Then the tissues were removed, washed thoroughly with KRB buffer and lipid was extracted with 5 ml of chlorofom/methanol (2:1, v/v) The extraction solution was washed with 2 ml of MeOH-H2O solution containing 0.1% MgCl2. A 2.5 ml aliquot of the washed extraction solution was taken and transferred to scintillation vials. The [C^14] radioactivity was measured with a liquid scintillation counter. The rates of total lipid synthesis were expressed as μmol [C^14]-glucose incorporated into lipid/g tissue/hr.

In test [6] the test system is Human Subcutaneous adipose Tissue. The experiment in a line: Lipolytic activity in human subcutaneous adipose tissue. Type of test: cell-based. The note with it: 0.5 μM peptide. As for the experimental part: as §3, §2
Where [7] appears, read: Post-treatment (Day 20-38), saline.
[8] abbreviates: Treatment (Day 0-18), i.p. 500 μg/kg daily.

Bridges are numbered along the chain shown (N, C = ends). Where no end group is shown, it is not given here. [ ]: non-standard residue; d: D form.

For “9604 (YLRIVQCRSVEGSCGF; disulfide 7-14; listed as Homo sapiens) [compound 9604]”, in test [1], the 14C incorporation is listed as 28 ± 3 Av DPM/mg tissue/hour. In addition, the Glycerol released in test [2] is recorded as 1600 ± 20 nmol/mg tissue/hour. Also, the “cumulative weight gain (in words)” value in test [3] (16-week old ob/ob mice, chronic treatment, FIG. 12) is on record as “exceptional efficacy”.
For the substance “9407 (LRIVQCKSVEGSCGF; disulfide 6-13; listed as Homo sapiens) [compound 9407]”, the Glycerol release in test [4] (peptide concentration 0.1 μM) is 1.83 ± 0.11 μmol/g tissue/hr; in test [4] (peptide concentration 1.0 μM) it was 1.79 ± 0.07 μmol/g tissue/hr. Besides, in test [5], the “activity according to the in vivo and in vitro assay results (in words)” value is “retains activity”.
With “9404 (LRIVQCRSVEGSCGF-NH2; disulfide 6-13; N-terminus assumed; SMILES CC[C@H](C)[C@H](NC(=O)[C@H](CCCNC(=N)N)NC(=O)[C@@H](N)CC(C)C)C(=O)N[C@H](C(=O)N[C@@H](CCC(N)=O)C(=O)N[C@H]1CSSC[C@@H](C(=O)NCC(=O)N[C@@H](Cc2ccccc2)C(N)=O)NC(=O)[C@H](CO)NC(=O)CNC(=O)[C@H](CCC(=O)O)NC(=O)[C@H](C(C)C)NC(=O)[C@H](CO)NC(=O)[C@H](CCCNC(=N)N)NC1=O)C(C)C; listed as Homo sapiens) [compound 9404]”, the Glycerol release in test [4] (peptide concentration 0.1 μM) is on record as 1.75 ± 0.12 μmol/g tissue/hr; in test [4] (peptide concentration 1.0 μM), 1.94 ± 0.12 μmol/g tissue/hr.
On to “9605 (KLRIVQCRSVEGSCGF; disulfide 7-14; listed as Homo sapiens) [compound 9605]”, for which the 14C incorporation in test [1] worked out at 36 ± 2 Av DPM/mg tissue/hour. The values for the Glycerol released in test [2] and in test [6] were 1350 ± 80 nmol/mg tissue/hour and 1100 ± 80 nmol/mg tissue/hour, respectively.
With “9403 (LRKVQCRSVEGSCGF; disulfide 6-13; listed as Homo sapiens) [compound 9403]”, the Glycerol release in test [4] (peptide concentration 0.1 μM) is on record as 1.80 ± 0.03 μmol/g tissue/hr. In addition, in test [4] (peptide concentration 1.0 μM), the Glycerol release came out at 1.88 ± 0.13 μmol/g tissue/hr. Moreover, in test [3] (26-week-old ob/ob mice, FIG. 11B), the “average daily food consumption / appetite versus control (in words)” value is listed as “No significance”. In test [3] (setting [7]), this substance registered an Ave. food consumption of 5.03 ± 0.13 g/mouse/day, a Blood glucose of 6.0 ± 1.0 mM, a Body weight gain of 2.00 ± 0.24 g and a Final body weight of 56.70 ± 4.45 g. The substance also had a Triglyceride in test [3] (setting [7]) of 0.54 ± 0.15 mM. In test [3] (setting [8]), this substance had an Ave. food consumption of 4.82 ± 0.22 g/mouse/day, a Blood glucose of 6.2 ± 0.8 mM, a Body weight gain of -0.32 ± 0.23 g and a Final body weight of 54.42 ± 4.66 g. This substance yielded a Triglyceride in test [3] (setting [8]) of 0.49 ± 0.10 mM. This substance registered an Initial body weight in test [3] (female ob/ob mice 26 weeks, Treatment (Day 0-18), i.p. 500 μg/kg daily) of 54.74 ± 4.96 g. In test [3] (female ob/ob mice, Post-treatment (Day 20-38), saline), this substance returned an Initial body weight of 54.70 ± 4.15 g. Moreover, the “anti-obesity action on body weight gain (in words)” value in test [3] (obese mice, FIG. 11A, i.p. 500 μg/kg daily, 18 days) is given as “anti-obesity actions”.
“9614 (LRIVQCRSVAGSCGF; listed as Homo sapiens) [Compound 9614]”: in test [5], the “In vitro lipogenesis % of control” value is on record as 96 % of control; the “In vitro lipogenesis Activity” value is given as “Inactive”; the “In vitro lipogenesis, rate of [C14]-glucose incorporation into [C14]-lipid” value (shortened to “In vitro lipogenesis, rate”) was 233 ± 13 nmol/g tissue/hr.
Consider “9612 (LRIVQCRAVEGSCGF; disulfide 6-13; listed as Homo sapiens) [Compound 9612]”, for which, in test [5], the “In vitro lipogenesis % of control” value is on record as 79 % of control; the “In vitro lipogenesis Activity” value is given as “Active”; the “In vitro lipogenesis, rate” value was 191 ± 20 nmol/g tissue/hr.
For “9501 (LRIVQCRSVE[dA]SC[dA]F; disulfide 6-13; listed as Homo sapiens) [Compound 9501]”, in test [5], the “In vitro lipogenesis % of control” value is 76 % of control; the “In vitro lipogenesis Activity” value was “Active”; the “In vitro lipogenesis, rate” value worked out at 185 ± 6 nmol/g tissue/hr.
In the case of “9401 (LRIVQCRSVEGSCGF; listed as Homo sapiens) [compound 9401]”, the Glycerol release in test [4] (peptide concentration 0.1 μM) is on record as 1.82 ± 0.02 μmol/g tissue/hr; in test [4] (peptide concentration 1.0 μM), 1.86 ± 0.12 μmol/g tissue/hr.
Regarding “9408 (LRIVQCKSVEGSCGF; lactam 7-10; disulfide 6-13; listed as Homo sapiens) [compound 9408]”, the “activity according to the in vivo and in vitro assay results (in words)” value in test [5] was “retains activity”.
